Measurements taken from ChEMBL document CHEMBL4725279, “Design and synthesis of peptide-based chimeric molecules to induce degradation of the estrogen and androgen receptors” (Bioorg Med Chem, 2020).

How the values were obtained:
Format in all cases: cell-based
[1] = target: T1, Protein cereblon/Androgen receptor (Homo sapiens) (UniProt P10275+Q96SW2); experiment: Protac activity at CRBN/AR in CRBN siRNA-transfected human MCF7 cells assessed as induction of AR protein degradation by measuring AR protein level at 20 uM incubated for 8 hrs by western blot analysis relative to lamin B
T1 sequence (P10275 whole entry, looked up): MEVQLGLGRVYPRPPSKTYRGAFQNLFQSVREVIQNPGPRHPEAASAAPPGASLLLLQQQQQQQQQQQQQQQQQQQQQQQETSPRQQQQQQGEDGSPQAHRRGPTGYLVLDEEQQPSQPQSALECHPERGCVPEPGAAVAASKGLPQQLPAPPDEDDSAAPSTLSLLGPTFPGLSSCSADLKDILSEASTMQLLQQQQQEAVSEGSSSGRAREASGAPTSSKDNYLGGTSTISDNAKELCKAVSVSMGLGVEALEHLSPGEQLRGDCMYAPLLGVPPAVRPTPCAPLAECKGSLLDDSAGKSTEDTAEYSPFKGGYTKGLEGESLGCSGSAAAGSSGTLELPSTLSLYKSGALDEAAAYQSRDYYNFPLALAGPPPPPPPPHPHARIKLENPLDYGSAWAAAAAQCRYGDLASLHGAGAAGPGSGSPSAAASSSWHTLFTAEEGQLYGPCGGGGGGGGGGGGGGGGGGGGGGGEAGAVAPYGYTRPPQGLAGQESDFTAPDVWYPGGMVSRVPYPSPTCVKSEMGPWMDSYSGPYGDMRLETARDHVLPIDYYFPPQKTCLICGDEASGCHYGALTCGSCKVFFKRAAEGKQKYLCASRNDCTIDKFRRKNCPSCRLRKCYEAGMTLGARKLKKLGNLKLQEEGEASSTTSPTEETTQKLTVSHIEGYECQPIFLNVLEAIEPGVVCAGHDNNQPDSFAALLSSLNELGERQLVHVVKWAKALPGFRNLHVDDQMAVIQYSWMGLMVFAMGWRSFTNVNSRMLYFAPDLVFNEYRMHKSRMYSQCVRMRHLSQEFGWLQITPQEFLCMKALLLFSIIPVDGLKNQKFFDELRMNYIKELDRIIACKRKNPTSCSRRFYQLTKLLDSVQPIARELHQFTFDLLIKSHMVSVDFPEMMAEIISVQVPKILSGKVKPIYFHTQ
T1 sequence (Q96SW2 whole entry, looked up): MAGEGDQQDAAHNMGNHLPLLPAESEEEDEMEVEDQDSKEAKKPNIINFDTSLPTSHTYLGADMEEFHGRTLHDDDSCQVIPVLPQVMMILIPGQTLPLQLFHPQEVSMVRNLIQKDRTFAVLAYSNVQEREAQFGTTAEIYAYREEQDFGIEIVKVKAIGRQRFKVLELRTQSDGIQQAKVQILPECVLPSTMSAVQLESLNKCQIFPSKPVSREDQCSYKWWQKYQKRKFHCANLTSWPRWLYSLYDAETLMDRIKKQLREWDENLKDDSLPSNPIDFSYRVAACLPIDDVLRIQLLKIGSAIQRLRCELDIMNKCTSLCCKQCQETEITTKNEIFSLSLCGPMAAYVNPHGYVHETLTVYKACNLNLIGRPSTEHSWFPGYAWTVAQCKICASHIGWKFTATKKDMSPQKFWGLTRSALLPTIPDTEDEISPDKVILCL

[2] = target: T2, Protein cereblon/Aryl hydrocarbon receptor (Homo sapiens, UniProt P35869+Q96SW2); experiment: Protac activity at CRBN/AhR in human MCF7 cells assessed as induction of AhR protein degradation by measuring AhR protein level at 5 uM incubated for 8 hrs by western blot analysis relative to lamin B; details: mcf7, 8 h
T2 sequence (P35869 whole entry): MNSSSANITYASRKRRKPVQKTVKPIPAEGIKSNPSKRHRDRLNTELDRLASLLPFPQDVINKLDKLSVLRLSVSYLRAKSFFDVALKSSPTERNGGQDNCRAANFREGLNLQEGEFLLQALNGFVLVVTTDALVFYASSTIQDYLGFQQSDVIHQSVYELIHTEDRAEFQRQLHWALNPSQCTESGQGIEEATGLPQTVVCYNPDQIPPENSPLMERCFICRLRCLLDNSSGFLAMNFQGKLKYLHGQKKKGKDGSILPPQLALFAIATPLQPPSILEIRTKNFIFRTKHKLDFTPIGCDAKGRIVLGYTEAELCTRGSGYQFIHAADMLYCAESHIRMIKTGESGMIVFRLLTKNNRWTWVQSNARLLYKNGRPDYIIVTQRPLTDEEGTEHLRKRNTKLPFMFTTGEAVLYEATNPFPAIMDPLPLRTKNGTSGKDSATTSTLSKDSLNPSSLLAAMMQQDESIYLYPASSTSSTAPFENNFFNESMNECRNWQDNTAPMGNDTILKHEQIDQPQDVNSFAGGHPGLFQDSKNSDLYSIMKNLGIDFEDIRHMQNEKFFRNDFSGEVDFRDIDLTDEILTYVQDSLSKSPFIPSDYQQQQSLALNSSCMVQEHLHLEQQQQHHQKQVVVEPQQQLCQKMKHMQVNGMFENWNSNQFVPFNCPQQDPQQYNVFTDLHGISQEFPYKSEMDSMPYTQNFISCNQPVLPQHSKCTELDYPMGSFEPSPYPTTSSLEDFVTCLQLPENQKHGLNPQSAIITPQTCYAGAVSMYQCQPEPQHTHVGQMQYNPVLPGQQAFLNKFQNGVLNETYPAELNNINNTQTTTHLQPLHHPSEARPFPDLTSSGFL
T2 sequence (Q96SW2 whole entry): as the sequence (Q96SW2 whole entry, looked up) above

[3] = target: T2, Protein cereblon/Aryl hydrocarbon receptor; experiment: Protac activity at CRBN/AhR in human MCF7 cells assessed as induction of AhR protein degradation by measuring AhR protein level at 20 uM incubated for 8 hrs by western blot analysis relative to lamin B; details: mcf7, 8 h
[4] = target: T3, Protein cereblon/Estrogen receptor (Homo sapiens) (UniProt P03372+Q96SW2); experiment: Protac activity at CRBN/ERalpha in CRBN siRNA-transfected human MCF7 cells assessed as induction of ERalpha protein degradation by measuring ERalpha protein level at 20 uM incubated for 8 hrs by western blot analysis relative to lamin B
T3 sequence (P03372 whole entry, looked up): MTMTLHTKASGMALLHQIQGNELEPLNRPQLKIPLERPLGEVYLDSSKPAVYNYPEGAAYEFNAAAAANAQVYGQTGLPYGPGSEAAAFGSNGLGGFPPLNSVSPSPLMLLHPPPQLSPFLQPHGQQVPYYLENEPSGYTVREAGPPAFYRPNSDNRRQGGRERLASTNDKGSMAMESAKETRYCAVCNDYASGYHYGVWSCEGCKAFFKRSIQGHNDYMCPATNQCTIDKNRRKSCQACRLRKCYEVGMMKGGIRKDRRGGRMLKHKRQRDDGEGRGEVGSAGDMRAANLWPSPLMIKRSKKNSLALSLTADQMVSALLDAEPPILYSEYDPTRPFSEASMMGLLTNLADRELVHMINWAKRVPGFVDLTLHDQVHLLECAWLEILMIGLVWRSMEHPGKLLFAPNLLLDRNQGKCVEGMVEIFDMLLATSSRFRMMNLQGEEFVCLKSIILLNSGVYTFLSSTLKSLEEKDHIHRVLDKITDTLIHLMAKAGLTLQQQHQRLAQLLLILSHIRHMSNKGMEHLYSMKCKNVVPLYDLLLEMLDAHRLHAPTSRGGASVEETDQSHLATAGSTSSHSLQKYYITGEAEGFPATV
T3 sequence (Q96SW2 whole entry, looked up): as the sequence (Q96SW2 whole entry, looked up) above

[5] = target: T3, Protein cereblon/Estrogen receptor (Homo sapiens); experiment: Protac activity at CRBN/ERalpha in human MCF7 cells assessed as induction of ERalpha protein degradation by measuring ERalpha protein level at 5 uM incubated for 24 hrs by western blot analysis relative to lamin B
[6] = target: T3, Protein cereblon/Estrogen receptor (Homo sapiens); experiment: Protac activity at CRBN/ERalpha in human MCF7 cells assessed as induction of ERalpha protein degradation incubated for 8 to 24 hrs by western blot analysis; details: time hrs 8-24
[7] = target: T1, Protein cereblon/Androgen receptor (Homo sapiens); experiment: Protac activity at CRBN/AR in human MCF7 cells assessed as induction of AR protein degradation by measuring AR protein level at 10 uM incubated for 8 hrs by western blot analysis relative to lamin B
[8] = target: T3, Protein cereblon/Estrogen receptor (Homo sapiens); experiment: Protac activity at CRBN/ERalpha in human MCF7 cells assessed as induction of ERalpha protein degradation by measuring ERalpha protein level at 10 uM incubated for 8 hrs by western blot analysis relative to lamin B
[9] = target: T2, Protein cereblon/Aryl hydrocarbon receptor; experiment: Protac activity at CRBN/AhR in human MCF7 cells assessed as induction of AhR protein degradation by measuring AhR protein level at 10 uM incubated for 24 hrs by western blot analysis relative to lamin B; details: mcf7, 24 h
[10] = target: T2, Protein cereblon/Aryl hydrocarbon receptor; experiment: Protac activity at CRBN/AhR in human MCF7 cells assessed as induction of AhR protein degradation by measuring AhR protein level at 5 uM incubated for 24 hrs by western blot analysis relative to lamin B; details: mcf7, 24 h
[11] = target: T3, Protein cereblon/Estrogen receptor (Homo sapiens); experiment: Protac activity at CRBN/ERalpha in human MCF7 cells assessed as induction of ERalpha protein degradation by measuring ERalpha protein level at 10 uM incubated for 24 hrs by western blot analysis relative to lamin B
[12] = target: T2, Protein cereblon/Aryl hydrocarbon receptor; experiment: Protac activity at CRBN/AhR in human MCF7 cells assessed as induction of AhR protein degradation by measuring AhR protein level at 20 uM incubated for 8 hrs in presence of ubiquitin activating inhibitor MLN7243 by western blot analysis relative to lamin B; details: mcf7, 8 h
[13] = target: T1, Protein cereblon/Androgen receptor (Homo sapiens); experiment: Protac activity at CRBN/AR in human MCF7 cells assessed as induction of AR protein degradation by measuring AR protein level at 5 uM incubated for 8 hrs by western blot analysis relative to lamin B
[14] = target: T3, Protein cereblon/Estrogen receptor (Homo sapiens); experiment: Protac activity at CRBN/ERalpha in human MCF7 cells assessed as induction of ERalpha protein degradation by measuring ERalpha protein level at 20 uM incubated for 8 hrs in presence of ubiquitin activating inhibitor MLN7243 by western blot analysis relative to lamin B
[15] = target: T1, Protein cereblon/Androgen receptor (Homo sapiens); experiment: Protac activity at CRBN/AR in human MCF7 cells assessed as induction of AR protein degradation by measuring AR protein level at 20 uM incubated for 8 hrs in presence of ubiquitin activating inhibitor MLN7243 by western blot analysis relative to lamin B
[16] = target: T2, Protein cereblon/Aryl hydrocarbon receptor; experiment: Protac activity at CRBN/AhR in human MCF7 cells assessed as induction of AhR protein degradation by measuring AhR protein level at 10 uM incubated for 8 hrs by western blot analysis relative to lamin B; details: mcf7, 8 h
[17] = target: T1, Protein cereblon/Androgen receptor (Homo sapiens); experiment: Protac activity at CRBN/AR in human MCF7 cells assessed as induction of AR protein degradation by measuring AR protein level at 10 uM incubated for 24 hrs by western blot analysis relative to lamin B
[18] = target: T2, Protein cereblon/Aryl hydrocarbon receptor; experiment: Protac activity at CRBN/AhR in human MCF7 cells assessed as induction of AhR protein degradation by measuring AhR protein level at 20 uM incubated for 24 hrs by western blot analysis relative to lamin B; details: mcf7, 24 h
[19] = target: T1, Protein cereblon/Androgen receptor (Homo sapiens); experiment: Protac activity at CRBN/AR in human MCF7 cells assessed as induction of AR protein degradation incubated for 8 to 24 hrs by western blot analysis; details: time hrs 8-24
[20] = target: T1, Protein cereblon/Androgen receptor (Homo sapiens); experiment: Protac activity at CRBN/AR in human MCF7 cells assessed as induction of AR protein degradation by measuring AR protein level at 20 uM incubated for 8 hrs in presence of proteasome inhibitor, MG132 by western blot analysis relative to lamin B
[21] = target: T3, Protein cereblon/Estrogen receptor (Homo sapiens); experiment: Protac activity at CRBN/ERalpha in human MCF7 cells assessed as induction of ERalpha protein degradation by measuring ERalpha protein level at 20 uM incubated for 24 hrs by western blot analysis relative to lamin B
[22] = target: T2, Protein cereblon/Aryl hydrocarbon receptor; experiment: Protac activity at CRBN/AhR in human MCF7 cells assessed as induction of AhR protein degradation by measuring AhR protein level at 20 uM incubated for 8 hrs in presence of proteasome inhibitor, MG132 by western blot analysis relative to lamin B; details: mcf7, 8 h
[23] = target: T1, Protein cereblon/Androgen receptor (Homo sapiens); experiment: Protac activity at CRBN/AR in human MCF7 cells assessed as induction of AR protein degradation by measuring AR protein level at 20 uM incubated for 24 hrs by western blot analysis relative to lamin B
[24] = target: T3, Protein cereblon/Estrogen receptor (Homo sapiens); experiment: Protac activity at CRBN/ERalpha in human MCF7 cells assessed as induction of ERalpha protein degradation by measuring ERalpha protein level at 20 uM incubated for 8 hrs by western blot analysis relative to lamin B
[25] = target: T3, Protein cereblon/Estrogen receptor (Homo sapiens); experiment: Protac activity at CRBN/ERalpha in human MCF7 cells assessed as induction of ERalpha protein degradation by measuring ERalpha protein level at 5 uM incubated for 8 hrs by western blot analysis relative to lamin B
[26] = target: T1, Protein cereblon/Androgen receptor (Homo sapiens); experiment: Protac activity at CRBN/AR in human MCF7 cells assessed as induction of AR protein degradation by measuring AR protein level at 20 uM incubated for 8 hrs by western blot analysis relative to lamin B
[27] = target: T3, Protein cereblon/Estrogen receptor (Homo sapiens); experiment: Protac activity at CRBN/ERalpha in human MCF7 cells assessed as induction of ERalpha protein degradation by measuring ERalpha protein level at 20 uM incubated for 8 hrs in presence of proteasome inhibitor, MG132 by western blot analysis relative to lamin B
[28] = target: T1, Protein cereblon/Androgen receptor (Homo sapiens); experiment: Protac activity at CRBN/AR in human MCF7 cells assessed as induction of AR protein degradation by measuring AR protein level at 5 uM incubated for 24 hrs by western blot analysis relative to lamin B

CC[C@H](C)[C@@H]1NC(=O)[C@H](NC(=O)[C@@H](N)CCCCNC(=O)CCOCCOCCOCCOCCOCCNc2cccc3c2C(=O)N(C2CCC(=O)NC2=O)C3=O)CSSC[C@@H](C(=O)N[C@@H](CCCNC(=N)N)C(=O)N[C@@H](CC(C)(C)C)C(=O)N[C@@H](CC(C)C)C(=O)N[C@@H](CCC(N)=O)C(=O)NCC(=O)NCC(=O)NCC(=O)N[C@@H](CCCNC(=N)N)C(=O)N[C@@H](CCCNC(=N)N)C(=O)N[C@@H](CCCNC(=N)N)C(=O)N[C@@H](CCCNC(=N)N)C(=O)N[C@@H](CCCNC(=N)N)C(=O)N[C@@H](CCCNC(=N)N)C(=O)N[C@@H](CCCNC(=N)N)C(N)=O)NC(=O)[C@H](CC(C)C)NC1=O (stereo partly drawn)
Activity [1]: 93% | Activity [2]: 124% | Activity [3]: 115% | Activity [4]: 93% | Activity [5]: 85% | Activity [6]: Dose-dependent effect | Activity [7]: 80% | Activity [8]: 85% | Activity [9]: 111% | Activity [10]: 101% | Activity [11]: 64% | Activity [12]: 107% | Activity [13]: 97% | Activity [14]: 117% | Activity [15]: 119% | Activity [16]: 123% | Activity [17]: 89% | Activity [18]: 133% | Activity [19]: Dose-dependent effect | Activity [20]: 92% | Activity [21]: 51% | Activity [22]: 123% | Activity [23]: 79% | Activity [24]: 57% | Activity [25]: 108% | Activity [26]: 51% | Activity [27]: 78% | Activity [28]: 84%
